This note sets out measurements from patent US20220118117A1, “MODULATORS OF METABOTROPIC GLUTAMATE RECEPTOR 4” (The General Hospital Corporation, priority 2019, published 2022).

Data set [1] in a line: Log D7.4, scaled-down shake flask method using [18F]15. The data set is classed as physicochemical. As to conditions: octanol / phosphate buffer pH 7.4. How it is done: The test tube was mixed by vortex for 2 min and then centrifuged for 2 min to fully separate the aqueous and organic phase. The samples taken from the octanol layer (0.1 mL) and the aqueous layer (1.0 mL) were saved for radioactivity measurement. An additional aliquot of the octanol layer […] was carefully transferred to a new test tube containing 0.5 mL of octanol and 2.5 mL of phosphate buffer solution (pH 7.4). The previous procedure (vortex mixing, centrifugation, sampling, and transfer to the next test tube) was repeated until six sets of aliquot samples had been prepared. The radioactivity of each sample was measured using PerkinElmer Wizard2 2480 gamma-counter. The log D of each set of samples was calculated as the following:
Log D7.4=Log(radioactivity of octanol layer×10/radioactivity of PBS layer)
Lipophilicity has a major effect on BBB penetration, ADMET properties and pharmacological activity. […] The Log D7.4 of 15 was 3.82 as measured with a scaled-down shake flask method using [^18F]15 (Table 2) and is in the range normally considered favorable for a PET ligand. (Ref. 43).

The nature of data set [2]: plasma protein binding, ultrafiltration assay using [18F]15. The format is in vitro ADME. As to conditions: human plasma. Here is the method:
Plasma Protein Binding Assay. An aliquot of radiolabeled compound [^18F]15 in saline (10 μL, 74 kBq) was added to a sample of human plasma (0.5 mL). The mixture was gently mixed by repeated inversion and incubated for 10 min at room temperature. Following incubation, a small sample (10 μL) was removed to determine the total radioactivity in the plasma sample (AT; AT=Abound+Aunbound). The upper part of the Centrifree tube was discarded, and an aliquot (10 μL) from the bottom part of the tube was removed to determine the amount of unbound radioactivity (Aunbound) that passed through the membrane (molecular weight cutoff 30 kD). The radioactivity of each sample was measured using PerkinElmer Wizard2 2480 gamma-counter. Plasma protein binding was derived by the following equation: % unbound=Aunbound×100/AT.
As the PET tracer is delivered into the bloodstream, it can bind to albumin, α1-acid glycoprotein and lipoproteins. Plasma protein binding reduces the free drug in the bloodstream and inhibits BBB penetration to reach the brain target. (Ref 44) The PPB value was obtained with an ultrafiltration assay by using [^18F]15. […] These pharmacological properties along with other molecular properties such as MW, tPSA and HBO are in the range normally considered favorable for a PET ligand.

A further data set can be described thus: solution stability. The format is physicochemical. Here is the method: Three pH values, 5, 7.4 and 9.4 were selected to check the solution stability. Aqueous solutions with different pH values were established using the following buffers: sodium acetate-KCl—HCl buffer (20 mM, pH 5.0), phosphate buffer (20 mM, pH 7.4), and boric acid-KCl—NaOH buffer (20 mM, pH 9.4). 891 μL of each pH buffer was placed in different tubes. 9 μL (1 mM) of the sample stock (4, 13, 15 and Diltiazem) was transferred to a particular buffer tube and mixed just before the time 0 min. The mixture was vortexed and incubated at 37° C. After the incubation at the different time points (0, 15, 30, 60, and 120 min), aliquots of 50 μL samples were quenched with 100 μL of ice-cold acetonitrile with 25 μM internal reference, respectively, and analyzed by HPLC. The percentage of the remaining intact compound was calculated by (peak area at the specific time point)/(peak area at 0 min)×100. Every sample was assayed three times.

The test system of data set [3] is other mGlu receptors (mGluR1, mGluR5, mGluR2, mGluR3, mGluR6, mGluR8). The data set can be described thus: mGluR subtype selectivity (Ca2+ mobilization and cAMP assays). The format is cell-based. The settings on record: Gq coupled: Ca2+ mobilization; Gi/o coupled: cAMP assay. How it is done:
Ca^2+ mobilization assay. The Gq coupled receptors (mGluR1 and mGluR5) were tested using Ca^2+ mobilization assay. mGluR1 stable cell lines were plated into poly-L-lysine (PLL) coated 384-well black clear bottom cell culture plates with complete Basal Medium Eagle (BME) buffer, which was composed of 10% dialyzed FBS, penicillin G (100 units/mL), streptomycin (100 μg/mL) with Tetracycline (1 μg/mL) at density of 20,000 cells in 40 μl per well for overnight. […] Once loaded in FLIPR (Molecular Devices), basal fluorescence was measured for 10 s, then 10 μL of test or reference compounds were added, followed by continued fluorescence measurement for an additional 120 s. […]
cAMP assay. […] Luminescence was counted in a Trilux luminescence counter. Data were analyzed with Prizm 5.0 (GraphPad software).
The selectivity of 15 was also analyzed among the various mGluR subtypes, in which the Gq coupled receptors (mGluR1 and mGluR5) were tested using Ca^2+ mobilization assay and the Gi/o coupled receptors (mGluR2, mGluR3, mGluR4, mGluR6 and mGluR8) using the cAMP assay.
In general terms: Calcium assays in cells follow changes in intracellular calcium, usually with a dye or a luminescent sensor.

Each structure is given as a SMILES string.

As to `[2H]C([2H])(F)Sc1cc(NC(=O)c2ccccn2)ccc1Cl` [Compound 15, N-(4-Chloro-3-((fluoromethyl-d2)thio)phenyl)picolinamide], the “Log D7.4” value in data set [1] came out at 3.82. Besides, the “PPB (plasma protein binding)” value in data set [2] is reported as 93.1%. The “The solution stability, The intact ± SEM at 120 min (%)” value in the data set “solution stability” (pH = 5.0, 37° C.) came to 87.1 ± 0.9%; in the data set “solution stability” (pH = 7.4, 37° C.) it was 88.3 ± 1.9%; in the data set “solution stability” (pH = 9.4, 37° C.) it was 84.3 ± 1.8%. The “selectivity among mGluR subtypes” value in data set [3] was “has selectivity against other mGlu receptors”.
